Test results from PubChem BioAssay AID179 (DTP/NCI, 2004).
Where “and” joins values, the source holds several entries; their conditions need not be identical. Identical values can stand only once. Calls of active or inactive are those of the source.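 Rule for the calls: active = compounds giving half or more protection of infected cells from virus-caused growth loss, again on retest; inactive = the rest.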

System: CEM cells HIV-1 protection, formazan growth assay
Assay: NCI AIDS Antiviral Assay
Conditions: for IC50: measured here: growth of uninfected CEM cells
Procedure, shortened: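 Soluble formazan readout of cell growth; CEM cells ± HIV-1; 5 drug concs. ≥50% protection → retest; ≥50% again = moderately active; reproducible 100% = confirmed active.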

With `C=C1C(=O)OC2/C=C(\C)CC(O)/C=C(/CO)CC(OC(=O)/C(C)=C/C)C12` (centres undefined) the EC50 was > 100 µM and the IC50 was 53.7 µM.

`COC1/C=C/OC2(C)Oc3c(C)c(O)c4c(O)c(cc(OCC(=O)N5CCCCCC5)c4c3C2=O)NC(=O)/C(C)=C\C=C\C(C)C(O)C(C)C(O)C(C)C(OC(C)=O)C1C` (centres undefined) was tested, and the EC50 was > 200 µM and the IC50 was 39.8 µM.

In the case of `O=C(CCCC[n+]1ccccc1)Sc1ccccc1C(=O)Nc1ccc(S(=O)(=O)Nc2nccs2)cc1`, the EC50 is reported as 13.5 µM and the IC50 is reported as 91.2 µM.

In the case of `CCOC(=O)/C=C(\CCOC1CCCCO1)[Si](C)(C)c1ccccc1` (centres undefined), the EC50 is reported as > 20 µM and the IC50 is reported as > 20 µM.

`Clc1cccc(Cl)c1C1CSc2ccccc2N=C1c1ccccc1` (centres undefined) was tested, and the EC50 was > 57.5 µM and the IC50 was 7.24 µM.

`O=C(O)c1cc(O)cc(O)c1N=Nc1ccc(CCc2ccc(N=Nc3c(O)cc(O)cc3C(=O)O)cc2S(=O)(=O)O)c(S(=O)(=O)O)c1` was tested, and the EC50 was 2.75 µM and the IC50 was 75.9 µM.

`COc1ccc(N2C=Nn3c(nc4sc(C)c(C)c4c3=O)C2)cc1` was tested, and the outcome was “inactive”.

For `COc1cc2ccc(C(=O)O)cc2cc1OC`, the outcome was “inactive”.

In the case of `OCC(O)C1OC2CC1Nc1ccccc1N2` (centres undefined), the EC50 is reported as > 200 µM and the IC50 is reported as 97.7 µM.

`CSc1nc(SC)c2[nH]cnc2n1` was tested, and the EC50 was > 200 µM and the IC50 was 145 µM.

`O=C1CC(=O)N(CCc2ccncc2)C(=O)N1CCc1ccncc1` was tested, and the outcome was “inactive” and the IC50 was > 200 µM.

With `CN1CCN=C(c2ccccc2)c2cc(Cl)ccc21` the EC50 was > 200 µM and the IC50 was 105 µM.

With `CC(C)CC(C(N)=O)C(=O)NC(Cc1ccccc1)NC(=O)CNC(=O)C(C)NC(=O)C(N)Cc1ccc(O)cc1` (centres undefined) the EC50 was > 200 µM and the IC50 was > 200 µM.

`CSc1c(C#N)c(N)n(-c2ccc(C)cc2)c(=O)c1C#N` was tested, and the EC50 was > 83.2 µM and the IC50 was 74.1 µM.

With `O=C(O)Cc1cccc2c(=O)c3ccccc3oc12` the EC50 was > 200 µM and the IC50 was > 200 µM.

With `c1cnc2nc3n(c2c1)CSC3` the EC50 was > 380 µM and the IC50 was 355 µM.

With `COc1cc2c(c(OC)c1OC)C(=O)C(Br)C2NC(=O)CCCCl` (centres undefined) the EC50 was > 200 µM and the IC50 was > 200 µM.

With `CCOC(=O)c1ncoc1[C@H]1COC(C)(C)O1` the outcome was “inactive”.

For `COC(=O)C1=CC(=O)N2CCN=C2S1`, the EC50 was > 200 µM and the IC50 was > 200 µM.

For `ClC1=C(Cl)C(Cl)(Cl)SS1`, the EC50 was > 200 µM and the IC50 was 33.1 µM.

With `NC(=O)c1nnn(Cc2ccccc2)c1N` the EC50 was > 200 µM and the IC50 was > 200 µM.

For `Cc1cn([C@@H]2O[C@H](CO[Si](C)(C)C(C)(C)C)[C@]3(O[C@H]3C(=O)NN)[C@H]2O[Si](C)(C)C(C)(C)C)c(=O)[nH]c1=O`, the EC50 was > 200 µM and the IC50 was 3.63 µM.

For `O=c1oc2ccccc2c2nc3ccc(Cl)cc3cc12`, the EC50 was > 200 µM and the IC50 was 5.13 µM.

In the case of `OCC(CO)CC1COc2ccccc2O1` (centres undefined), the outcome is reported as “inactive”.

In the case of `N#C/C(=C\c1ccc2c(c1)OCO2)c1ccccc1`, the EC50 is reported as > 200 µM and the IC50 is reported as 41.7 µM and > 28.8 µM.

In the case of `[O-]c1c2c(nn1-c1ccccc1)c1ccccc1c[n+]2Cc1ccccc1`, the outcome is reported as “inactive”.

For `COC1/C=C/OC2(C)Oc3c(C)c(O)c4c(O)c(c(/C=N/N5CC(C)N(Cc6ccccc6)C(C)C5)c(O)c4c3C2=O)NC(=O)C(C)=C/C=C/C(C)C(O)C(C)C(O)C(C)C(OC(C)=O)C1C` (centres undefined), the EC50 was > 200 µM and the IC50 was 3.09 µM.

For `CN1CC(=O)Nc2c(ncn2C2OC(CO)C(O)C2O)C1=O` (centres undefined), the EC50 was > 229 µM and the IC50 was > 229 µM.

In the case of `Cc1cn(C2CC(/[N+]([O-])=N\Nc3ccc([N+](=O)[O-])cc3)C(CO)O2)c(=O)[nH]c1=O` (centres undefined), the EC50 is reported as > 200 µM.

For `CCC1Sc2cc(OC)cc(N)c2NC1=O` (centres undefined), the EC50 was > 200 µM and the IC50 was > 200 µM.

With `N#C/C(=C\N1CC(=O)NC1=S)C(=O)c1ccc2ccccc2c1` the EC50 was > 200 µM and the IC50 was 158 µM.

For `CC1CC[P+](c2ccccc2)(c2ccccc2)c2c1ccc1ccccc21` (centres undefined), the EC50 was > 17.8 µM and the IC50 was 0.741 µM.

`CC1(c2nc3cc(Cl)c(Cl)cc3[nH]2)CCC(CO)C(C)(C)O1` (centres undefined) was tested, and the outcome was “inactive”.

With `COC(=N)c1ncn(Cc2ccccc2)c1N` the EC50 was > 200 µM and the IC50 was 158 µM.

In the case of `C(/C=C/c1ccccc1)=Nc1ccc(SSc2ccc(N=C/C=C/c3ccccc3)cc2)cc1`, the EC50 is reported as > 200 µM and the IC50 is reported as 16.6 µM.

In the case of `CCOC(=O)N1CC2(C(=O)OC)C=CC1C(C(=O)OC)C2` (centres undefined), the EC50 is reported as > 200 µM and the IC50 is reported as > 200 µM.

`C#CCN1C(=O)NC(c2ccccc2)(c2ccccc2)C1=O.[C-]#[O+].[C-]#[O+].[C-]#[O+].[C-]#[O+].[C-]#[O+].[C-]#[O+].[Co].[Co]` was tested, and the EC50 was > 200 µM and the IC50 was 8.91 µM.

For `N#CC1([N+](=O)[O-])C=C1c1ccccc1` (centres undefined), the EC50 was > 200 µM and the IC50 was 89.1 µM.

`Cc1oc2cc(O)ccc2c(=O)c1-c1ccccc1` was tested, and the EC50 was > 200 µM and the IC50 was 30.2 µM.

With `COc1ccc2c(c1)C(=O)CC(c1ccccc1OC)O2` (centres undefined) the EC50 was > 200 µM and the IC50 was 34.7 µM.

`O=C1NC(=O)C2(CCN(Cc3ccccc3)CC2)N1c1ccccc1` was tested, and the EC50 was > 200 µM and the IC50 was > 200 µM.

`Oc1c(CN2CCOCC2)ccc2cccnc12` was tested, and the EC50 was > 200 µM and the IC50 was 3.72 µM.

In the case of `COC(=O)c1cc(=O)c2c(ccc3oc(=O)ccc32)[nH]1`, the EC50 is reported as > 200 µM and the IC50 is reported as 170 µM.
